Measurements from article PMC6273627, “Extended N-Arylsulfonylindoles as 5-HT6 Receptor Antagonists: Design, Synthesis & Biological Evaluation” (Molecules, 2016).
Where “and” joins values, the source holds several entries; their conditions need not be identical. Equal entries are not always repeated. Where two headings read alike, the source gives them in different places.

Legend:
5-HT6R = conditions: cited from earlier work
[1] = target: T1, cloned human 5-HT6-expressing cell line (HTS111RTA) (Homo sapiens, UniProt P50406); test: intracellular calcium mobilization assay (antagonism of 2-Me 5-HT); assay type: cell-based; conditions: for IC50: antagonism of 2-Me-5-HT (500 nM) intracellular calcium mobilization
T1 construct: host or cells: purchased ready-to-assay cell line
T1 sequence (P50406 whole entry): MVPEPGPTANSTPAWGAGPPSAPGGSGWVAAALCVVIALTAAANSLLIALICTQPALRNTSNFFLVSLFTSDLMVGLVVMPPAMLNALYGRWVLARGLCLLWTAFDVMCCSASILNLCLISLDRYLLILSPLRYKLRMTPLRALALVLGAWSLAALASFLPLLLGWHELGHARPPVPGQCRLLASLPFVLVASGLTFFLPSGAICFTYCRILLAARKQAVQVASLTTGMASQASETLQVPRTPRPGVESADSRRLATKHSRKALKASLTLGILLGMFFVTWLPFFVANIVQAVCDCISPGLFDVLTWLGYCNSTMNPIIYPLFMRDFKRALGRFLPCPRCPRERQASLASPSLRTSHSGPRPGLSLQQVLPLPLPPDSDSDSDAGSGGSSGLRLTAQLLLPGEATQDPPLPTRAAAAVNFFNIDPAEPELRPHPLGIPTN

1H-NMR pKa determination = assay type: physicochemical; conditions: D2O solution; 1H-NMR titration in D2O, 298 K, corrected for H2O; piperazine nitrogen; read-out: pKa (pKa2)
Description: All NMR spectra were performed on a Bruker Avance III HD-400 MHz spectrometer at 298 K. The ^1H-NMR experiments were acquired using water suppression in order to suppress the residual HDO signal. Solutions of the 3b and 4g 2 mM in D2O were prepared adding acetone 200 μM as an internal standard. The titrations were carried out progressively in a single NMR sample for each compound. The pH was adjusted with 0.1 mol/L of NaOH and 0.1 mol/L HCl, to cover the pH ranges 4.65–9.11 and 5.58–9.46 for 3b and 4g solutions, respectively. […] The chemical shifts (δ ppm) of the piperazine methylene protons were plotted against the pH for both compounds. The pKa were obtained from the inflection point of the resulting sigmoidal curve, for each compound.
The signal to upfield of the doublet of methylene protons of the piperazine ring was used to plot δ ppm vs. pH. In this case, the pKa^D correspond to inflection point in the resulting sigmoidal curve from the plot δ ppm vs. pH, for each compound (Figure 7B,D). […] The pKa value determined in D2O was corrected for H2O using the Krezel et al. equation [59].
The chemical shift is affected by the chemical and, consequently, the magnetic environment. Therefore, the protonation of basic species such as the nitrogen atoms in piperazine ring induce important changes in the chemical environment in the adjacent proton groups. […]

Structure (SMILES) | melting point | further results
Cc1[nH]c2ccc(O)cc2c1CCN [2-Me 5-HT, reference compound] | – | pKi (5-HT6R; Figure 1, known ligands): 7.34; EC50 [1]: 119 nM
COc1ccccc1N1CCNCC1 [2-methoxyphenyl piperazine] | – | 5-HT6R affinity compared with the compounds here reported (5-HT6R): substantially lower affinity
O=C(CBr)c1c[nH]c2ccccc12 [Compound 1] | 160.3 to 161 °C | pKi (5-HT6R; Table 2 reference value): 8.70 [1]
Cc1ccc(S(=O)(=O)n2cc(C(=O)CN3CCN(c4ccccn4)CC3)c3ccccc32)cc1 [Compound 3a, 2-(4-(Pyridyl-2-yl)piperazin-1-yl)-1-(1-tosyl-1H-indol-3-yl)ethanone] | 74.9 to 75.7 °C and 75 to 76 °C | –
COc1ccccc1N1CCN(CC(=O)c2cn(S(=O)(=O)c3ccc(C)cc3)c3ccccc23)CC1 [Compound 3b, 2-(4-(2-Methoxyphenyl)piperazin-1-yl)-1-(1-tosyl-1H-indol-3-yl)ethanone] | 132.3 to 133.6 °C and 132 to 134 °C | pKa (1H-NMR pKa determination): 5.72
Cc1ccc(S(=O)(=O)n2cc(C(=O)CN3CCN(c4ncccn4)CC3)c3ccccc32)cc1 [Compound 3c, 2-(4-(Pyrimidin-2-yl)piperazin-1-yl)-1-(1-tosyl-1H-indol-3-yl)ethanone] | 133 to 134 °C | –
O=C(CN1CCN(c2ncccn2)CC1)c1cn(S(=O)(=O)c2ccc(Cl)cc2)c2ccccc12 [Compound 3d, 1-(1-(4-Chlorophenylsulfonyl)-1H-indol-3-yl)-2-(4-(pyrimidin-2-yl)piperazin-1-yl)ethanone] | 168 to 169 °C | –
O=C(CN1CCN(c2ncccn2)CC1)c1cn(S(=O)(=O)c2ccc(F)cc2)c2ccccc12 [Compound 3e, 1-(1-(4-Fluorophenylsulfonyl)-1H-indol-3-yl)-2-(4-(pyrimidin-2-yl)piperazin-1-yl)ethanone] | 145 to 146 °C | –
O=C(CN1CCN(c2ccccn2)CC1)c1cn(S(=O)(=O)c2ccc(I)cc2)c2ccccc12 [Compound 3f, 1-(1-(4-Iodophenylsulfonyl)-1H-indol-3-yl)-2-(4-(pyridin-2-yl)piperazin-1-yl)ethanone] | 179 to 180 °C | –
COc1ccccc1N1CCN(CC(=O)c2cn(S(=O)(=O)c3ccc(I)cc3)c3ccccc23)CC1 [Compound 3g, 1-(1-(4-Iodophenylsulfonyl)-1H-indol-3-yl)-2-(4-(2-methoxyphenyl)piperazin-1-yl)ethanone] | 182 to 183 °C | –
O=C(CN1CCN(c2ncccn2)CC1)c1cn(S(=O)(=O)c2ccc(I)cc2)c2ccccc12 [Compound 3h, 1-(1-(4-Iodophenylsulfonyl)-1H-indol-3-yl)-2-(4-(pyrimidin-2-yl)piperazin-1-yl)ethanone] | 184 to 185 °C | –
O=C(CN1CCN(c2ccccn2)CC1)c1cn(S(=O)(=O)c2cccc3ccccc23)c2ccccc12 [Compound 3i, 1-(1-(Naphthalen-1-ylsulfonyl)-1H-indol-3-yl)-2-(4-(pyridin-2-yl)piperazin-1-yl)ethanone] | 76 to 77 °C | –
COc1ccccc1N1CCN(CC(=O)c2cn(S(=O)(=O)c3cccc4ccccc34)c3ccccc23)CC1 [Compound 3j, 2-(4-(2-Methoxyphenyl)piperazin-1-yl)-1-(1-(naphthalen-1-ylsulfonyl)-1H-indol-3-yl)ethanone] | 74 to 75 °C | –
O=C(CN1CCN(c2ncccn2)CC1)c1cn(S(=O)(=O)c2cccc3ccccc23)c2ccccc12 [Compound 3k, 1-(1-(Naphthalen-1-ylsulfonyl)-1H-indol-3-yl)-2-(4-(pyrimidin-2-yl)piperazin-1-yl)ethanone] | 88 to 89 °C | –
Cc1ccc(S(=O)(=O)n2cc(C(O)CN3CCN(c4ccccn4)CC3)c3ccccc32)cc1 (stereo not drawn) [Compound 4a, 2-(4-(Pyridin-2-yl)piperazin-1-yl)-1-(1-tosyl-1H-indol-3-yl)ethanol] | 72.4 to 73.9 °C and 72 to 74 °C | IC50 [1]: 783 nM
COc1ccccc1N1CCN(CC(O)c2cn(S(=O)(=O)c3ccc(C)cc3)c3ccccc23)CC1 (stereo not drawn) [Compound 4b, 2-(4-(2-Methoxyphenyl)piperazin-1-yl)-1-(1-tosyl-1H-indol-3-yl)ethanol] | 86.3 to 86.9 °C and 86 to 87 °C | –
Cc1ccc(S(=O)(=O)n2cc(C(O)CN3CCN(c4ncccn4)CC3)c3ccccc32)cc1 (stereo not drawn) [Compound 4c, 2-(4-(Pyrimidin-2-yl)piperazin-1-yl)-1-(1-tosyl-1H-indol-3-yl)ethanol] | 81 to 82 °C | –

Structure (SMILES) | melting point | further results
O=S(=O)(c1ccc(Cl)cc1)n1cc(C(O)CN2CCN(c3ncccn3)CC2)c2ccccc21 (stereo not drawn) [Compound 4d, 1-(1-(4-Chlorophenylsulfonyl)-1H-indol-3-yl)-2-(4-(pyrimidin-2-yl)piperazin-1-yl)ethanol] | 76 to 77 °C and 81 to 82 °C | –
O=S(=O)(c1ccc(F)cc1)n1cc(C(O)CN2CCN(c3ncccn3)CC2)c2ccccc21 (stereo not drawn) [Compound 4e, 1-(1-(4-Fluorophenylsulfonyl)-1H-indol-3-yl)-2-(4-(pyrimidin-2-yl)piperazin-1-yl)ethanol] | 72 to 73 °C | –
O=S(=O)(c1ccc(I)cc1)n1cc(C(O)CN2CCN(c3ccccn3)CC2)c2ccccc21 (stereo not drawn) [Compound 4f, 1-(1-(4-Iodophenylsulfonyl)-1H-indol-3-yl)-2-(4-(pyridin-2-yl)piperazin-1-yl)ethanol] | 157 to 158 °C | IC50 [1]: 24600 nM
COc1ccccc1N1CCN(CC(O)c2cn(S(=O)(=O)c3ccc(I)cc3)c3ccccc23)CC1 (stereo not drawn) [Compound 4g, 1-(1-(4-Iodophenylsulfonyl)-1H-indol-3-yl)-2-(4-(2-methoxyphenyl)piperazin-1-yl)ethanol] | 109 to 110 °C | pKa (1H-NMR pKa determination): 6.69; inhibition of 2-Me-5HT-induced Ca2+ mobilization [1]: strong inhibition; IC50 [1]: 204 nM
O=S(=O)(c1ccc(I)cc1)n1cc(C(O)CN2CCN(c3ncccn3)CC2)c2ccccc21 (stereo not drawn) [Compound 4h, 1-(1-(4-Iodophenylsulfonyl)-1H-indol-3-yl)-2-(4-(pyrimidin-2-yl)piperazin-1-yl)ethanol] | 171 to 172 °C | IC50 [1]: 75 nM
O=S(=O)(c1cccc2ccccc12)n1cc(C(O)CN2CCN(c3ccccn3)CC2)c2ccccc21 (stereo not drawn) [Compound 4i, 1-(1-(Naphthalen-1-ylsulfonyl)-1H-indol-3-yl)-2-(4-(pyridin-2-yl)piperazin-1-yl)ethanol] | 80 to 81 °C | IC50 [1]: 399 nM
COc1ccccc1N1CCN(CC(O)c2cn(S(=O)(=O)c3cccc4ccccc34)c3ccccc23)CC1 (stereo not drawn) [Compound 4j, 2-(4-(2-Methoxyphenyl)piperazin-1-yl)-1-(1-(naphthalen-1-ylsulfonyl)-1H-indol-3-yl)ethanol] | – | inhibition of 2-Me-5HT-induced Ca2+ mobilization [1]: strong inhibition; IC50 [1]: 32 nM
O=S(=O)(c1cccc2ccccc12)n1cc(C(O)CN2CCN(c3ncccn3)CC2)c2ccccc21 (stereo not drawn) [Compound 4k, 1-(1-(Naphthalen-1-ylsulfonyl)-1H-indol-3-yl)-2-(4-(pyrimidin-2-yl)piperazin-1-yl)ethanol] | 82 to 83 °C | IC50 [1]: 688 nM
COc1ccc(S(=O)(=O)n2cc(C(O)CN3CCOCC3)c3ccccc32)cc1 (stereo not drawn) [Compound 4l, 1-(1-(4-Methoxyphenylsulfonyl)-1H-indol-3-yl)-2-morpholinoethanol] | 149 to 152 °C | –
O=S(=O)(c1ccc(F)cc1)n1cc(C2=CCCNC2)c2ccccc21 [III] | – | pKi (5-HT6R; Figure 1, known ligands): 8.70
CN1CCC(c2cn(S(=O)(=O)c3ccc(F)cc3)c3ccccc23)C1 (stereo not drawn) [II] | – | pKi (5-HT6R; Figure 1, known ligands): 8.70
CC(C)c1ccc(S(=O)(=O)n2cc(N3CCN(C)CC3)c3ccccc32)cc1 [IV] | – | pKi (5-HT6R; Figure 1, known ligands): 8.47
COc1ccc2c(c1)c(CCN(C)C)cn2S(=O)(=O)c1ccccc1 [I] | – | pKi (5-HT6R; Figure 1, known ligands): 8.64
CCN(CC)C(=O)[C@@H]1C=C2c3cccc4[nH]cc(c34)C[C@H]2N(C)C1 [LSD] | – | pKi (5-HT6R; Figure 1, known ligands): 8.94
CN1CC(Cl)=C(c2cn(S(=O)(=O)c3ccccc3)c3ccccc23)C1 [VI] | – | pKi (5-HT6R; Figure 1, known ligands): 8.57
CN1CCC[C@@H]1Cc1cn(S(=O)(=O)c2ccccc2)c2ccccc12 [V] | – | pKi (5-HT6R; Figure 1, known ligands): 9.52
